Results on four molecules are retold here after US20230349907A1, “BIOPROBES FOR LYSYL OXIDASES AND USES THEREOF” (Pharmaxis Ltd., priority 2020, published 2023).

The target of one assay is Bovine LOX (Bos taurus (Bovine), UniProt P33072). In words: LOX inhibition, peroxidase-coupled Amplex Red assay. The class given is biochemical. Conditions: 30 min preincubation at 37° C. An excerpt: (§1) Method to Determine the Ability of Compounds of the Invention to Inhibit LOX and LOXL1-4 from Different Sources […] S., Trackman P. C. and Kagan H. M., Reaction of aortic lysyl oxidase with beta-aminoproprionitrile. J Biol Chem 1983; 258: 4331-4338). There are five LOX family members; these are LOX, LOXL1, LOXL2, LOXL3 and LOXL4. LOX and LOXL family members can be acquired as recombinant active proteins from commercial sources, or extracted from animal tissues like bovine aorta, tendons, pig skin; or prepared from cell cultures. The inhibitory effects of the compounds of the present invention were tested against the given LOX-LOXL preparation using a high-throughput coupled colorimetric method (Holt A. and Palcic M., A peroxidase-coupled continuous absorbance plate-reader assay for flavin monoamine oxidases, copper-containing amine oxidases and related enzymes. Nat. Protoc. 2006; 1: 2498-2505). The assay was developed using either 384 or 96 well format. […] Test compounds were dissolved in DMSO and tested in a Concentration Response Curve (CRC) with 11 data points, typically in the micromolar or nanomolar range after incubation with the enzyme for 30 min at 37° C. 25 μL of a reaction mixture containing twice the KM concentration of putrescine (Sigma Aldrich, e.g. 20 mM for LOX, or 10 mM for LOXL2 and LOXL3), 120 μM Amplex Red (Sigma Aldrich) and 1.5 U/mL horseradish peroxidase (Sigma Aldrich) prepared in 1.2 M urea, 50 mM sodium borate buffer (pH 8.2) were then added to the corresponding wells. The above volumes were doubled in the case of 96 well plates. The fluorescence (RFU) was read every 2.5 m n for 30 m u […], excitation 565 nm and emission 590 nm (Optima; BMG labtech). The slope of the kinetics for each well was calculated using MARS data analysis software (BMG labtech) and this value was used to deduce the IC50 value (Dotmatics).
Bovine LOX, sequence (P33072 170-418): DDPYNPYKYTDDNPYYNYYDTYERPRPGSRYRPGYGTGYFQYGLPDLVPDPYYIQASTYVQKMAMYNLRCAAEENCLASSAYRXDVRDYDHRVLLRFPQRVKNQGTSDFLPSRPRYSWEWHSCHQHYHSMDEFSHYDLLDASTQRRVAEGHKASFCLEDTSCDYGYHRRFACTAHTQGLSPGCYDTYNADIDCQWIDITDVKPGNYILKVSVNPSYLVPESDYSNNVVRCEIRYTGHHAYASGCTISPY

The target of the next assay is Human LOXL1 (Homo sapiens (Human), UniProt Q08397). In words: LOXL1 inhibition, peroxidase-coupled Amplex Red assay. Format: biochemical. Conditions: 30 min preincubation at 37° C. An excerpt:
(§2) Method to Determine the Ability of Compounds of the Invention to Inhibit LOX and LOXL1-4 from Different Sources […] S., Trackman P. C. and Kagan H. M., Reaction of aortic lysyl oxidase with beta-aminoproprionitrile. J Biol Chem 1983; 258: 4331-4338). There are five LOX family members; these are LOX, LOXL1, LOXL2, LOXL3 and LOXL4. LOX and LOXL family members can be acquired as recombinant active proteins from commercial sources, or extracted from animal tissues like bovine aorta, tendons, pig skin; or prepared from cell cultures. The inhibitory effects of the compounds of the present invention were tested against the given LOX-LOXL preparation using a high-throughput coupled colorimetric method (Holt A. and Palcic M., A peroxidase-coupled continuous absorbance plate-reader assay for flavin monoamine oxidases, copper-containing amine oxidases and related enzymes. Nat. Protoc. 2006; 1: 2498-2505). The assay was developed using either 384 or 96 well format. […] The fluorescence (RFU) was read every 2.5 m n for 30 m u at a range of temperatures from 37° C. to 45° C., excitation 565 nm and emission 590 nm (Optima; BMG labtech). The slope of the kinetics for each well was calculated using MARS data analysis software (BMG labtech) and this value was used to deduce the IC50 value (Dotmatics).

For assay [1], the target named is T1, rhLOXL2 (Homo sapiens (Human), UniProt Q9Y4K0). Put plainly: LOXL2 inhibition, peroxidase-coupled Amplex Red assay. The note with it: 30 min preincubation at 37° C. The class given is biochemical.
T1 sequence (Q9Y4K0 26-774): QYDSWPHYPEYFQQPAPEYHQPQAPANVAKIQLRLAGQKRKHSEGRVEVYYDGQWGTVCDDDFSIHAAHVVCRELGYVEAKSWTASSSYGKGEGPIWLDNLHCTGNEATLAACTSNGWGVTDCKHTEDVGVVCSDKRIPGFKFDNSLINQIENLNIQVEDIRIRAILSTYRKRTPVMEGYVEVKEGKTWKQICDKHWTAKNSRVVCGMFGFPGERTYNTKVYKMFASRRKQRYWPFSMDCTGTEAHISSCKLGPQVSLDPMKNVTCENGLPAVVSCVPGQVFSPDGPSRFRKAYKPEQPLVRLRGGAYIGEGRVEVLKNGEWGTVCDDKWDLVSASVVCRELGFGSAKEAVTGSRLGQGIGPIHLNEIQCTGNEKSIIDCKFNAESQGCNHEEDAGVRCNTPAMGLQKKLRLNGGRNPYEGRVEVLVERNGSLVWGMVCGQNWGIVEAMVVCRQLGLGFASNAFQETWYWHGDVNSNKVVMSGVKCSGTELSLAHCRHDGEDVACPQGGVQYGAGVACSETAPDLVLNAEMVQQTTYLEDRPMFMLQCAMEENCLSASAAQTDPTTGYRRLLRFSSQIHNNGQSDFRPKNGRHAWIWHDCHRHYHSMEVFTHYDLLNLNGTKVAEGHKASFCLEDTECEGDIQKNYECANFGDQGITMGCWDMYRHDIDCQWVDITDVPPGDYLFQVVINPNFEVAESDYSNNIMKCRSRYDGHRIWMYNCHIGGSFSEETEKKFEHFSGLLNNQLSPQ
Description: as §1

The target in another assay is Human LOXL3 (Homo sapiens (Human), UniProt P58215). Put plainly: LOXL3 inhibition, peroxidase-coupled Amplex Red assay. Conditions: 30 min preincubation at 37° C. The class given is biochemical.
Human LOXL3, sequence (P58215 26-753): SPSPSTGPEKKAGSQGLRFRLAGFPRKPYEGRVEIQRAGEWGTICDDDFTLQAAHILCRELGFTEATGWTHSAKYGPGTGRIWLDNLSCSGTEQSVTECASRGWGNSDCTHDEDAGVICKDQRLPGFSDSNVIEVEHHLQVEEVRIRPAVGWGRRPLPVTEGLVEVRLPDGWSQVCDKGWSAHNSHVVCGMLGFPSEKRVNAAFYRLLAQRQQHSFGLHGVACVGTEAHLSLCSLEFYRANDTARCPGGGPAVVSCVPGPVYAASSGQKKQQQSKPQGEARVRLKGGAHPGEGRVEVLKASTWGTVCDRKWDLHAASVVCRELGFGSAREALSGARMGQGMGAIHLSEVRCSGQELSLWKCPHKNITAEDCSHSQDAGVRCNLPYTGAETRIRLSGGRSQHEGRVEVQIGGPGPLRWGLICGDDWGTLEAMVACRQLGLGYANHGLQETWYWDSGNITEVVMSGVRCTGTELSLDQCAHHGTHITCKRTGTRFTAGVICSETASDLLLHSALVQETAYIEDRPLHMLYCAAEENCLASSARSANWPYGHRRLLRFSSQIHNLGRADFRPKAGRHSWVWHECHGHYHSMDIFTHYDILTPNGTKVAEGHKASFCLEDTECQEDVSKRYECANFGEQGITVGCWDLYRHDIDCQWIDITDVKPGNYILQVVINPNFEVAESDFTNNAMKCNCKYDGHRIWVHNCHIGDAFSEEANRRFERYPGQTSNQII
Description: as §2

In another assay the target is Human LOXL4 (Homo sapiens (Human), UniProt Q96JB6). Put plainly: LOXL4 inhibition, peroxidase-coupled Amplex Red assay. Format: biochemical. The note with it: 30 min preincubation at 37° C.
Human LOXL4, sequence (Q96JB6 25-756): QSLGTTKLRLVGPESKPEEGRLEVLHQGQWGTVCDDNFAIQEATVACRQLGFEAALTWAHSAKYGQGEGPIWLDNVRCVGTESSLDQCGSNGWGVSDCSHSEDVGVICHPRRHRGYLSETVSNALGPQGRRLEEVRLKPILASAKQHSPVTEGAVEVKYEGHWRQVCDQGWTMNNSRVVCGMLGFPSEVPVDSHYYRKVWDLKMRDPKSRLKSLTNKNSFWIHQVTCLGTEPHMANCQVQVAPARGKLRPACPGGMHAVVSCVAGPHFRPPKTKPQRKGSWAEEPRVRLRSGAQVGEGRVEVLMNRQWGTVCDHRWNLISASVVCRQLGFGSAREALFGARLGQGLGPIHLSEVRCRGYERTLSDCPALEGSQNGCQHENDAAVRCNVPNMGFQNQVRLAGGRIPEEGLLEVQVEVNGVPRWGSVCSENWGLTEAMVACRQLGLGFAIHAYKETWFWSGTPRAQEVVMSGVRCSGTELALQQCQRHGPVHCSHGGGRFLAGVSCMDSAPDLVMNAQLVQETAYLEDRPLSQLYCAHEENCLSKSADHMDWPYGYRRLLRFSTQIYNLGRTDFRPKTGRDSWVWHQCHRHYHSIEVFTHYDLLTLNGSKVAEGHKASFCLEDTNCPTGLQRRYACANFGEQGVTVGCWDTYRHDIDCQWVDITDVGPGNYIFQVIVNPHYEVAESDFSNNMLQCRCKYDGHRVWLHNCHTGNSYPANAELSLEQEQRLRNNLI
Description: as §2

Assay [2] addresses T1, rhLOXL2. In words: antibody/bioprobe ELISA assay detecting rhLOXL2. Format: binding. How it is done:
Antibody A (AF2639) was conjugated to beads, bound to high protein binding plates (microlon 600, high binding, flat bottom, Greiner 655061 using coating buffer containing 71.5 mM NaHCO3 and 28.5 mM Na2CO3) overnight at 4° C. After washing with a mild detergent (0.05% Tween 20) to remove excess and unbound antibody, the beads or plates were then incubated with blocking solution (1-5% BSA/TBS) to block any free binding spots, for 1 hour at room temperature. The blocking solution was then removed and rhLOXL2 was added and incubated for 3 hours at 4° C. After washing (with a mild detergent) to remove excess/unbound protein, bioprobe Compound 1-1 (which is conjugated with biotin) was incubated for 2 hours at 37° C. at a concentration between IC50 to IC100 of the rhLOXL2 (as measured in a standard biochemical assay eg Amplex Red/Resorufin). After a washing step (with a mild detergent) streptavidin conjugated to horseradish peroxidase or an appropriate label was added and incubation was continued for 1 hour at room temperature. After an additional washing step (with mild TBS/tween detergent), a detection substrate (resorufin or TMB) was added followed by the fluorescence read at Excitation: 565 nm/Emmission: 590 nm or maximum absorbance at 450 nm. A suitable capture antibody will allow for bioprobe binding whilst providing a large signal.
FIG. 3 depicts the absorbance values (optical density 450 nm) from the antibody/bioprobe assay, using one antibody and Compound 1-1 (FIG. 3A) AF2639 was used as the capture antibody, rhLOXL2 was used as the antigen and 80 nM of Compound 1-1 was used as the detection. FIG. 3B) Fitzgerald 70R-12876 was used as the capture antibody, rhLOXL2 is used as the antigen and 80 nM of Compound 1-1 is used as the detection.
When the bioprobe contains two biotin moieties, the signal is more robust than a single biotin counterpart. […] AF2639 was used as the capture, rhLOXL2 was used as the antigen and 78 nM of Compound 1-12 was used for detection.

A further assay concerns the target LOX in human serum (Homo sapiens (Human), UniProt P28300). In words: LOX Bioprobe Activity Assay (Simoa). The class given is biochemical. How it is done: The LOX Bioprobe Assay used a Simoa HD-1 analyzer and Simoa technology to run a 2-step digital immunoassay, to measure the activity of unbound LOX in human serum.
This assay used the same anti-LOX capture antibody as for the Protein Concentration Assay. The bioprobe (Compound 1-12) was diluted down to 130 μM in deionized H2O prior to being diluted in Detector Buffer. Before being loaded onto the analyzer, samples were diluted at least 6 fold in Assay Buffer (1% BSA, 0.25% Rabbit Serum, 2% PEG (20k MW), 0.55% Tween-20, 1×PBS; used to dilute samples, controls, and detector reagent). To determine the background signal, diluted samples were pre-incubated for 30 min with LOX inhibitor beta-aminoproprionitrile (BAPN).
In the LOX Bioprobe Activity 2-step immunoassay, target-antibody-coated paramagnetic beads (500k per mL) were combined with diluted sample and biotinylated detector-bioprobe ([…]) in the same incubation cuvette for 54 minutes. […]
A single-labeled target molecule results in sufficient fluorescent signal in 30 seconds to be detected and counted by the Simoa optical system. […] At higher target concentration, when most of the bead-containing wells have one or more labeled target molecules, the total fluorescence signal is proportional to the amount of target present in the sample. […]

For assay [3], the target named is T1, rhLOXL2. In words: sandwich ELISA with bioprobe pre-incubated with rhLOXL2. The class given is binding. Conditions: 400 nM bioprobe pre-incubated, 1250 ng/mL rhLOXL2, AF2639 capture, antibody C (C-AB179810) detection, FIG. 5. How it is done:
A further aim was directed at determining whether the presence of bioprobe (Compound 1-1), pre-incubated and bound to the active site of rhLOXL2, would affect antibody binding and detection by sandwich ELISA. […] FIG. 5 depicts the absorbance values (optical density 460 nm) from the antibody/antibody assay, using two antibodies. Antibody A (AF2639) was used as the capture antibody, 1250 ng/mL rhLOXL2 was used as the antigen and antibody C (C-AB179810) was used as the detection antibody. 400 nM of Compound 1-1 was pre-incubated with rhLOXL2 before commencement of the ELISA assay.

pIC50: −log10 of the molar value. “And” between values parts separate entries of the source, which are not always exact repeats. Identical values can stand only once. Counter-ions that a name gives are not always drawn. Bounds are passed on as bounds.

LOX in human serum, sequence (P28300 169-417): as the sequence (P33072 170-418) above, with T10S, S29G, P49A, A64S, S80T, X84A, S142N, N188G, S224T, E231D counted along it
Human LOXL1, sequence (Q08397 96-574): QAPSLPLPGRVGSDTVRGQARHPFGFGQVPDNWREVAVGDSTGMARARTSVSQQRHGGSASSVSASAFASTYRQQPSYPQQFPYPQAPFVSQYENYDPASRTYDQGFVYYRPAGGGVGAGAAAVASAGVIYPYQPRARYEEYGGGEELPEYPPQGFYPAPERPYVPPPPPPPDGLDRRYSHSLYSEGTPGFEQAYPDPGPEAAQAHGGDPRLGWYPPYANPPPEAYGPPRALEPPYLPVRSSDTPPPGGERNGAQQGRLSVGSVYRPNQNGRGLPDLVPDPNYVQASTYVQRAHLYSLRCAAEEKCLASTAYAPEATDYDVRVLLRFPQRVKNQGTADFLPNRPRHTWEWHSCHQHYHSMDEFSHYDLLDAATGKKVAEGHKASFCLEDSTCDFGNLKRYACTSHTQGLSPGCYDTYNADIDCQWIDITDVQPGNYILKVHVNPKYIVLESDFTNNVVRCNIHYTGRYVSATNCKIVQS

For the molecule `NC/C=C(\F)CS(=O)(=O)c1cccc(Cn2cc(-c3cc(OCCCc4cn(CCCCC[C@@H]5SC[C@@H]6NC(=O)N[C@@H]65)nn4)cc(OCCCc4cn(CCCCC[C@@H]5SC[C@@H]6NC(=O)N[C@@H]65)nn4)c3)nn2)c1` [Compound 1-12, (3aS,3a'S,4S,4'S,6aR,6a′R)-4,4′-(((((5-(1-(3-(((Z)-4-amino-2-fluorobut-2-en-1-yl)sulfonyl)benzil)-1H-1,2,3-triazol-4-yl)-1,3-phenylene)bis(oxy))bis(propane-3,1-diyl))bis(1H-1,2,3-triazole-4,1-diyl))bis(pentane-5,1-diyl))bis(tetrahydro-1H-thieno[3,4-d]imidazol-2(3H)-one) hydrochloride], the negative logarithm of the IC50 (pIC50) against Bovine LOX is less than 6.52; on Human LOXL1 it was less than 6.52; at rhLOXL2 [1], more than 6.52; at Human LOXL3, less than 6.52; at Human LOXL4, more than 6.52. Also, the “signal of bioprobe with two biotin moieties versus single biotin counterpart (optical density 460 nm)” value at rhLOXL2 [2] (AF2639 capture, 78 nM bioprobe, FIG. 4) is recorded as “more robust”.
As to `N#CCCN` [BAPN, β-aminopropionitrile], at rhLOXL2 [2] (AF2639 capture, Compound 1-1 detection, FIG. 3A), the “effect of inhibitor on bioprobe rhLOXL2 signal” value is listed as “the signal is ablated”. Moreover, the Average signal at LOX in human serum (human serum + CM (×100 diluted) + BAPN, bioprobe Compound 1-12) was 0.0093 and 0.0077. On LOX in human serum (human serum spiked with human fibroblast conditioned media), the “effect of inhibitor on LOX bioprobe signal” value is recorded as “significantly reduces the signal”.
For `CN(C)S(=O)(=O)c1ccc(C(OCc2ccc(-n3cc(CNC(=O)CCCC[C@@H]4SC[C@@H]5NC(=O)N[C@@H]54)nn3)cc2)c2cn(C/C(F)=C/CN)nn2)cc1` (stereo partly drawn) [Compound 1-15, N-((1-(4-(((1-((Z)-4-amino-2-fluorobut-2-en-1-yl)-1H-1,2,3-triazol-4-yl)(4-(N,N-dimethylsulfamoyl)phenyl)methoxy)methyl)phenyl)-1H-1,2,3-triazol-4-yl)methyl)-5-((3aS,4S,6aR)-2-oxohexahydro-1H-thieno[3,4-d]imidazol-4-yl)pentanamide hydrochloride], the pIC50 on Bovine LOX, against rhLOXL2 [1] and against Human LOXL3 was more than 6.52 throughout.
Consider `Cc1c(Cc2ccc(S(=O)(=O)N(C)C)cc2)c2cc(C(=O)N3CCN(C(=O)CCCC[C@@H]4SC[C@@H]5NC(=O)N[C@@H]54)CC3)ccc2n1C/C(F)=C/CN` [Compound 1-1, 4-((1-((Z)-4-amino-2-fluorobut-2-en-1-yl)-2-methyl-5-(4-(5-((3aS,4S,6aR)-2-oxohexahydro-1H-thieno[3,4-d]imidazol-4-yl)pentanoyl)piperazine-1-carbonyl)-1H-indol-3-yl)methyl)-N,N-dimethylbenzenesulfonamide hydrochloride], for which the results for the negative-log IC50 (pIC50) against Bovine LOX and against rhLOXL2 [1] were less than 6.52 and more than 6.52, respectively. For the same molecule, the “rhLOXL2 signal by bioprobe detection (optical density 450 nm)” value at rhLOXL2 [2] (Antibody A (AF2639) as capture antibody, 80 nM bioprobe, FIG. 3A) was “shows a specific rhLOXL2 signal”. Moreover, the “rhLOXL2 detection by bioprobe (optical density 450 nm)” value at rhLOXL2 [2] (Antibody B (Fitzgerald 70R-12876) as capture antibody, 80 nM bioprobe, FIG. 3B) was “prevents the detection of rhLOXL2”. Also, on rhLOXL2 [3], the “rhLOXL2 detection levels in the presence or absence of bioprobe” value is on record as “no difference in rhLOXL2 detection levels”.
